As usually defined, the pIC50 is −log10 of the IC50, conventionally taken in molar units.

pIC50: −log10 of the molar value.

For the first assay, the system named is human monocytic leukemia U937 cells. Kind of assay: necroptosis assay in U937 cells. As to conditions: Homo sapiens, U-937, U937 cells; viability by cellular ATP (Cell Titer-Glo); read-out: mean pIC50, inhibition of necrosis in U937 cells (converted). It is filed as cell-based. The method, then:
The efficacy of RIP1 inhibitors can be tested […] in vitro using a human monocytic leukemia U937 or mouse L929 fibrosarcoma cells in a necroptosis assay. As determined using the method described in He, S. et al. 2009. Cell 137(6):1100-1111 and International Patent Appln. No. PCT/IB2014/059004, now, International Patent Appln. Pub.
Viability was measured by quantitating cellular levels of ATP using the Cell Titer-Glo kit. All data are means±standard deviation of the mean.
For orientation: Cellular ATP, detected with luciferase, serves as a proxy for viable cell number.
Turning to `O=C(C1CCN(c2ccc(F)cn2)CC1)N1N=CC[C@H]1c1ccccc1` [Example 3, (S)-(1-(5-fluoropyridin-2-yl)piperidin-4-yl)(5-phenyl-4,5-dihydro-1H-pyrazol-1-yl)methanone], the IC50 was 1 to 100 nM.

As to `O=C(C1CCN(c2ncc(F)cn2)CC1)N1N=CC[C@H]1c1ccccc1` [Example 7, (S)-(1-(5-fluoropyrimidin-2-yl)piperidin-4-yl)(5-phenyl-4,5-dihydro-1H-pyrazol-1-yl)methanone], the IC50 was 1 to 100 nM.

For `Cc1ccc(C(=O)N2N=CCC2c2ccccc2)cc1` (stereo not shown) [Example 17, (5-phenyl-4,5-dihydro-1H-pyrazol-1-yl)(p-tolyl)-methanone], the IC50 was roughly 631 nM.

Take `O=C(c1nc2ccccc2s1)N1CCC(C(=O)N2N=CCC2c2ccccc2)CC1` (stereo not shown) [Example 139, beno[d]thiazol-2-yl(4-(5-phenyl-4,5-dihydro-1H-pyrazole-1-carbonyl)piperidin-1-yl)methanone]: the IC50 is 1 to 100 nM.

`O=C(c1n[nH]c2ccccc12)N1CCC(C(=O)N2N=CCC2c2ccccc2)CC1` (stereo not shown) [Example 140, (1-(1H-indazole-3-carbonyl)piperidin-4-yl)(5-phenyl-4,5-dihydro-1H-pyrazol-1-yl)methanone]: the IC50 is 1 to 100 nM.

Consider `O=C(c1noc2ccccc12)N1CCC(C(=O)N2N=CCC2c2ccccc2)CC1` (stereo not shown) [Example 146, benzo[d]isoxazol-3-yl(4-(5-phenyl-4,5-dihydro-1H-pyrazole-1-carbonyl)piperidin-1-yl)methanone], for which the IC50 is 1 to 100 nM.

`O=C(c1cnco1)N1CCC(C(=O)N2N=CCC2c2ccccc2)CC1` (stereo not shown) [Example 147, oxazol-5-yl(4-(5-phenyl-4,5-dihydro-1H-pyrazole-1-carbonyl)piperidin-1-yl)methanone]: the IC50 is 1 to 100 nM.

Regarding `O=C(c1ncco1)N1CCC(C(=O)N2N=CCC2c2ccccc2)CC1` (stereo not shown) [Example 148, oxazol-2-yl(4-(5-phenyl-4,5-dihydro-1H-pyrazole-1-carbonyl)piperidin-1-yl)methanone], the IC50 was 1 to 100 nM.

`O=C(c1ccno1)N1CCC(C(=O)N2N=CCC2c2ccccc2)CC1` (stereo not shown) [Example 151, isoxazol-5-yl(4-(5-phenyl-4,5-dihydro-1H-pyrazole-1-carbonyl)piperidin-1-yl)methanone]: the IC50 was 1 to 100 nM.

Consider `O=C(c1ccon1)N1CCC(C(=O)N2N=CCC2c2ccccc2)CC1` (stereo not shown) [Example 153, isoxazol-3-yl(4-(5-phenyl-4,5-dihydro-1H-pyrazole-1-carbonyl)piperidin-1-yl)methanone], for which the IC50 was 1 to 100 nM.

`O=C(c1cscn1)N1CCC(C(=O)N2N=CCC2c2ccccc2)CC1` (stereo not shown) [Example 154, (5-phenyl-4,5-dihydro-1H-pyrazol-1-yl)(1-(thiazole-4-carbonyl)piperidin-4-yl)methanone]: the IC50 is 1 to 100 nM.

Consider `O=C(c1ccccc1)N1CCC(C(=O)N2N=CCC2c2ccccc2)CC1` (stereo not shown) [Example 164, (1-benzoylpiperidin-4-yl)(5-phenyl-4,5-dihydro-1H-pyrazol-1-yl)methanone], for which the IC50 was 1 to 100 nM.

As for `O=C(C1CCN(c2ncccn2)CC1)N1N=CCC1c1ccccc1` (stereo not shown) [Example 171, (5-phenyl-4,5-dihydro-1H-pyrazol-1-yl)(1-(pyrimidin-2-yl)piperidin-4-yl)methanone], the IC50 was 1 to 100 nM.

As to `O=C(c1cccs1)N1N=CCC1c1ccccc1` (stereo not shown) [Example 174, (5-phenyl-4,5-dihydro-1H-pyrazol-1-yl)(thiophen-2-yl)methanone 2,2,2-trifluoroacetate], the IC50 was roughly 501 nM.

`Cn1cccc1C(=O)N1CCC(C(=O)N2N=CCC2c2ccccc2)CC1` (stereo not shown) [Example 175, (1-methyl-1H-pyrrol-2-yl)(4-(5-phenyl-4,5-dihydro-1H-pyrazole-1-carbonyl)piperidin-1-yl)methanone 2,2,2-trifluoroacetalc]: the IC50 is 1 to 100 nM.

Regarding `O=C(C1CCN(c2ccccn2)CC1)N1N=CCC1c1ccccc1` (stereo not shown) [Example 176, (5-phenyl-4,5-dihydro-1H-pyrazol-1-yl)(1-(pyridin-2-yl)piperidin-4-yl)methanonc 2,2,2-trifluoroacctate], the IC50 is 1 to 100 nM.

Turning to `O=C(C1CCN(c2ccccn2)CC1)N1N=CC[C@H]1c1ccccc1` [Example 177, (S)-(5-phenyl-4,5-dihydro-1H-pyrazol-1-yl)(1-(pyridin-2-yl)piperidin-4-yl)methanone], the IC50 is 1 to 100 nM.

Turning to `O=C(C1CCN(c2ccc(C(F)(F)F)cn2)CC1)N1N=CCC1c1ccccc1` (stereo not shown) [Example 179, (5-phenyl-4,5-dihydro-1H-pyrazol-1-yl)(1-(5-(trifluoromethyl)pyridin-2-yl)piperidin-4-yl)methanone 2,2,2-trifluoroacetate], the IC50 is 1 to 100 nM.

As for `O=C(C1CCN(c2nc3ccccc3o2)CC1)N1N=CCC1c1ccccc1` (stereo not shown) [Example 180, (1-(benzo[d]oxazol-2-yl)piperidin-4-yl)(5-phenyl-4,5-dihydro-1H-pyrazol-1-yl)methanone 2,2,2-trifluoroacetate], the IC50 was 1 to 100 nM.

Regarding `O=C(C1CCN(c2ncc(F)cn2)CC1)N1N=CCC1c1ccc2c(c1)CCC2` (stereo not shown) [Example 184, (5-(2.3-dihydro-1H-inden-5-yl)-4,5-dihvdro-1H-pyrazol-1-yl)(1-(5-fluoropyrimidin-2-yl)piperidin-4-yl)methanone], the IC50 was 1 to 100 nM.

On to `O=C(C1CCN(c2ncc(F)cn2)CC1)N1N=CCC1c1ccc(OC(F)F)cc1` (stereo not drawn) [Example 185, (5-(4-(difluoromethoxy)phenyl)-4,5-dihydro-1H-pyrazol-1-yl)(l-(5-fluoropyrimidin-2-yl)piperidin-4-yl)methanone], for which the IC50 was 1 to 100 nM.

Turning to `Cc1ccc(C2CC=NN2C(=O)C2CCN(c3ncc(F)cn3)CC2)cn1` (stereo not shown) [Example 187, (1-(5-fluoropyrimidin-2-yl)piperidin-4-yl)(5-(6-methylpyridin-3-yl)-4,5-dihydro-1H-pyrazol-1-yl)methanone], the IC50 is 1 to 100 nM.

With `N#Cc1ccc(C2CC=NN2C(=O)C2CCN(c3ncc(F)cn3)CC2)cc1` (stereo not shown) [Example 188, 4-(1-(1-(5-fluoropyrimidin-2-yl)piperidine-4-carbonyl)-4,5-dihydro-1H-pyrazol-5-yl)benzonitrile], the IC50 was 1 to 100 nM.

Consider `CC1(C(=O)N2N=CCC2c2ccccc2)CCN(c2ncc(F)cn2)CC1` (stereo not shown) [Example 190, (1-(5-fluoropyrimidin-2-yl)-4-methylpiperidin-4-yl)(5-phenyl-4,5-dihydro-1H-pyrazol-1-yl)methanone], for which the IC50 was 1 to 100 nM.

As for `O=C(c1cccnc1)N1N=CCC1c1ccccc1` (stereo not shown) [Example 209], the IC50 is roughly 2000 nM.

In the next assay the target is T1, RIP1 kinase (Homo sapiens, UniProt Q13546).
T1 sequence (Q13546 1-375 limits assumed): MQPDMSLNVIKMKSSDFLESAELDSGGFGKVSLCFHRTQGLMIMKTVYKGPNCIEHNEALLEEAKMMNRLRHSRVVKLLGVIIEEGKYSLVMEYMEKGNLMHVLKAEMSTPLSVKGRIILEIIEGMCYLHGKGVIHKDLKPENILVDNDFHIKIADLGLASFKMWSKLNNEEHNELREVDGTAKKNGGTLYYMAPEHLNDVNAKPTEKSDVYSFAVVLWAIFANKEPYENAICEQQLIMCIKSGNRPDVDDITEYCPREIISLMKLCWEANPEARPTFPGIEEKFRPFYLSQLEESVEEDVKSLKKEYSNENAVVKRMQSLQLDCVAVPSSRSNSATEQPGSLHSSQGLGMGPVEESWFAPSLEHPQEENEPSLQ
In words: fluorescent polarization based binding assay. As to conditions: mean value, minimum of 2 experiments. The source says: A fluorescent polarization based binding assay was used to asses the activity of the compounds of this invention, the details of which are disclosed in International Patent Appln. No. PCT/IB2014/059004, now, International Patent Appln. Pub.
`O=C(C1CCN(c2ccc(F)cn2)CC1)N1N=CC[C@H]1c1ccccc1` [Example 3, (S)-(1-(5-fluoropyridin-2-yl)piperidin-4-yl)(5-phenyl-4,5-dihydro-1H-pyrazol-1-yl)methanone] gave a pIC50 of 8.00 to 9.00.

Take `O=C(C1CCN(c2ncc(F)cn2)CC1)N1N=CC[C@H]1c1ccccc1` [Example 7, (S)-(1-(5-fluoropyrimidin-2-yl)piperidin-4-yl)(5-phenyl-4,5-dihydro-1H-pyrazol-1-yl)methanone]: the pIC50 is 8.00 to 9.00.

`O=C(C1CCN(c2ncccn2)CC1)N1N=CCC1c1cncc(F)c1` (stereo not shown) [Example 11, (5-(5-fluoropyridin-3-yl)-4,5-dihydro-1H-pyrazol-1-yl)(1-(pyrimidin-2-yl)-piperidin-4-yl)methanone] gave a pIC50 of roughly 7.50.

Compound `CC(=O)N1CCC(C(=O)N2N=CCC2c2ccc3c(c2)OCO3)CC1` (stereo not shown) [Example 12, 1-(4-(5-(benzo[d][1,3]-dioxol-5-yl)-4,5-dihydro-1H-pyrazole-1-carbonyl)-piperidin-1-yl)ethanone] showed a pIC50 of roughly 6.30.

Regarding `Cc1ccc(C(=O)N2N=CCC2c2ccccc2)cc1` (stereo not shown) [Example 17, (5-phenyl-4,5-dihydro-1H-pyrazol-1-yl)(p-tolyl)-methanone], the pIC50 is roughly 6.90.

`O=C(C1CCN(c2ccccn2)CC1)N1N=CC[C@H]1c1cccnc1` [Example 70, (S)-(1-(pyridin-2-yl)piperidin-4-yl) (5-(pyridin-3-yl)-4,5-dihydro-1H-pyrazol-1-yl)-methanone] showed a pIC50 of roughly 6.40.

The values above are taken from patent publication US10590085B2, “Heterocyclic amides as kinase inhibitors” (GlaxoSmithKline Intellectual Property Development Limited, priority 2015, dated 2020).
